Like-named read-outs stand apart in the source and are kept apart here.
Legend:
[1] = tested on: IL-10 production by zymosan-stimulated BMDCs; experiment: IL-10 up-regulation in zymosan-stimulated BMDCs (AlphaLISA/ELISA); format: cell-based, mouse
Protocol: (§1) Bone marrow-derived DCs were differentiated from C57BL/6 bone marrow in the presence of GM-CSF-conditioned media. CD11c^+ CX3CR1^hi myeloid cells and CD11c^+ CX3CR1^− DCs were isolated from the small intestine lamina propria of Cx3cr1^eGFP/+ mice (12). Detection of cell-surface Thy1.1 expression on BMDCs from 10BiT reporter mice was conducted as described previously (24). Cell viability was estimated by change in total cellular ATP levels using CellTiterGlo assays (Promega). Preparation of recombinant SIK proteins and IC50 measurements were conducted as described previously (21). Total RNA was extracted using a NucleoSpin 96 RNA isolation kit (Macherey-Nagel) followed by cDNA synthesis and multiplex RT-PCR using a microfluidic dynamic array (Fluidigm). The concentrations of TNF-α, IL-6, IL-10, IL-12p40, IL-1β and RANTES in culture supernatants were detected using a FlexSet Cytometric bead array (BD Biosciences). Alternatively, IL-10 secretion was quantified using ELISA (BD Biosciences) or AlphaLISA (PerkinElmer) assays. NO production was estimated based on nitrate content in culture medium using the Greiss reagent.
C57BL/6 mice were euthanized and bone marrow harvested from femurs and tibias as described previously (Graham D B, et al. (2007) An ITAM-signaling pathway controls cross-presentation of particulate but not soluble antigens in dendritic cells. The Journal of experimental medicine 204(12):2889-2897). BMDCs were differentiated DMEM supplemented with 2 mM GlutaMAX, 10% (vol/vol) FBS, penicillin, streptomycin and 2% mouse GM-CSF conditioned media derived from TOPO cells. Cultures were differentiated for 7 days and routinely analyzed for >90% CD11c (APC anti-CD11c clone HL3; BD Biosciences) positivity by flow cytometry before use in experiments. Lentiviral transduction of bone marrow cultures was conducted by addition of 293T culture supernatants containing lentiviral particles encoding the CREB dependent luciferase reporter construct or CRTC3 targeting or control shRNAs one day post-isolation. Stable integration of lentiviral shRNA constructs was selected by addition of puromycin (3 μg/mL) on day 4 post-transduction. After 2 days, stably transduced BMDCs were released from selection and used in subsequent assays. Unless otherwise indicated, cells were treated for 2 days with PGE2 (5 μM) or HG-9-91-01 (0.5 μM) or an equivalent concentration of DMSO (≤0.5%) and then stimulated for 18 hr with LPS (100 ng/mL), R848 (10 μg/mL) or zymosan (4 μg/mL).
BMDCs were seeded into black 384-well plates (Corning) at 20,000 cells/well in 40 μL complete DMEM using a Multidrop COMBI (Thermal Scientific) followed by incubation at 37° C. for 2 hr to allow for plate adherence. SIK inhibitors (100 nL/well) were pin-transferred from concentrated DMSO stocks using CyBi-Well Vario (CyBio) into duplicate plates. For each treatment plate, 32 out of 384 wells were pinned with DMSO as negative control and 32 out of 384 wells were pinned with PGE2 (5 μM final concentration). Two days after SIK inhibitor treatment, BMDCs were stimulated with zymosan (4 μg/mL final concentration) dispersed in culture medium (20 μL/well) using a Multidrop COMBI. After 18 hr, 5 μL of resulting supernatant was transferred from the culture plate to white 384-well AlphaLISA plates (Perkin Elmer) using a CyBi-Well Vario. IL-10 abundance in the supernatants was determined using an AlphaLISA assay (PerkinElmer) according to the manufacture's protocol and signal intensity measured using an EnVision multimode plate reader. SIK inhibitor activity was expressed as a % of the differences between the mean abundance of IL-10 in PGE2 versus DMSO wells on a per plate basis. Cell viability assays were conducted on the same tissue culture plates as the IL-10 assay. First media was removed and replaced by solution of 50% (vol/vol) CellTiter-Glo (Promega) in PBS. […]

SIK3 = molecular target: T1, SIK3 (Homo sapiens, UniProt Q9Y2K2); experiment: Protein kinase assay ([γ-32P] ATP, phosphocellulose paper) against SIK3; format: biochemical; settings: for remaining activity at 0.1 µM / remaining activity at 1 µM: DMSO set to 100%; for remaining activity at 0.1 µM: read-out: Activity of protein kinase treated with 0.1 μM of I-1 (% control (DMSO)) SIK3; for remaining activity at 1 µM: read-out: Activity of protein kinase treated with 1 μM of I-1 (% control (DMSO)) SIK3; for IC50: read-out: Enzyme Inhibition IC50 SIK3
T1 construct: made in house
Protocol: as §1
In another set of experiments, the activities of the SIK inhibitors described herein against SIK were determined according to the methods reported in Hastie et al., Nature Protocols, 2006, 1, 968-971.
This buffer consisted of 50 mM Tris-HCl, pH 7.5, 0.1 mM EGTA, 1 mg ml^−1 bovine serum albumin and 0.1% (vol/vol) 2-mercaptoethanol.
An assay buffer of 500 mM Tris-HCl, pH 7.5, 1 mM EGTA, and 100 mM magnesium acetate was used for the protein kinase assay.
The specific activity of the [γ-^32P] ATP solution was 1×10^5 to 1×10^6 c.p.m. per nmol depending on what was needed to produce an optimal signal/noise ratio. Stocks of nonradioactive (“cold”) ATP were dissolved in 10 mM HEPES, and the pH of the resulting stock solutions was adjusted to 7.4. To measure the concentration of ATP, a sample of such a stock solution was diluted to 20 μM, and the absorbance of the diluted sample was measured at 259 nm. The absorbance of a 20-μM stock solution of ATP at 259 nm was about 0.31. The 1-mM solution of cold ATP was “spiked” with [γ-^32P] ATP to produce a radioactivity of 1×10^5 to 1×10^6 c.p.m. per nmol.
1) The number of assay samples needed was determined based on, e.g., the following considerations: (i) each condition was assayed in duplicate; (ii) two controls containing peptide or protein substrate and ATP but no SIK were included to assess contamination by any free ATP not incorporated into substrate, alongside two controls lacking a peptide or protein substrate but containing ATP and SIK to correct for any incorporation of phosphate into the kinase itself (e.g., autophosphorylation); and (iii) a maximum of 40 samples were assayed manually at one time by a single person. Microcentrifuge tubes were label distinctly and were placed on ice.
4) Dilute the SIK in enzyme dilution buffer and place on ice.
5) Pipette 5 j±l of 10× concentrated assay buffer, 5 j±l peptide or protein substrate (the two “no-substrate” control tubes had 5 j±l water added instead of peptide or protein substrate), and 30 μl distilled water into each tube. Keep the tubes on ice.
6) Add 5 μl diluted SIK to each tube, except for the two “no-enzyme” control tubes, which had 5 μl enzyme dilution buffer added, and still keeping the tubes on ice. In some cases, premixed “cocktails” of assay components were prepared containing peptide or protein substrate, assay buffer, and distilled water to limit the number of additions to each assay tube. Each of steps 7 to 14 was done behind a plexiglass shield.
7) Insert each tube into the water bath at intervals of 15 s to allow the assay mixture to reach 30° C. Begin the SIK reactions by adding 5 μl of 1 mM [γ-^32P] ATP to each tube at intervals of 15 s. Close each tube, vortex for 1 s to mix the contents and immediately replace in a rack in the water bath. Incubate for 10 min at 30° C. […]

[2] = Mus musculus, BMDC, zymosan-stimulated BMDCs, read-out: IL-10 induction EC50

T1 sequence (Q9Y2K2 whole entry): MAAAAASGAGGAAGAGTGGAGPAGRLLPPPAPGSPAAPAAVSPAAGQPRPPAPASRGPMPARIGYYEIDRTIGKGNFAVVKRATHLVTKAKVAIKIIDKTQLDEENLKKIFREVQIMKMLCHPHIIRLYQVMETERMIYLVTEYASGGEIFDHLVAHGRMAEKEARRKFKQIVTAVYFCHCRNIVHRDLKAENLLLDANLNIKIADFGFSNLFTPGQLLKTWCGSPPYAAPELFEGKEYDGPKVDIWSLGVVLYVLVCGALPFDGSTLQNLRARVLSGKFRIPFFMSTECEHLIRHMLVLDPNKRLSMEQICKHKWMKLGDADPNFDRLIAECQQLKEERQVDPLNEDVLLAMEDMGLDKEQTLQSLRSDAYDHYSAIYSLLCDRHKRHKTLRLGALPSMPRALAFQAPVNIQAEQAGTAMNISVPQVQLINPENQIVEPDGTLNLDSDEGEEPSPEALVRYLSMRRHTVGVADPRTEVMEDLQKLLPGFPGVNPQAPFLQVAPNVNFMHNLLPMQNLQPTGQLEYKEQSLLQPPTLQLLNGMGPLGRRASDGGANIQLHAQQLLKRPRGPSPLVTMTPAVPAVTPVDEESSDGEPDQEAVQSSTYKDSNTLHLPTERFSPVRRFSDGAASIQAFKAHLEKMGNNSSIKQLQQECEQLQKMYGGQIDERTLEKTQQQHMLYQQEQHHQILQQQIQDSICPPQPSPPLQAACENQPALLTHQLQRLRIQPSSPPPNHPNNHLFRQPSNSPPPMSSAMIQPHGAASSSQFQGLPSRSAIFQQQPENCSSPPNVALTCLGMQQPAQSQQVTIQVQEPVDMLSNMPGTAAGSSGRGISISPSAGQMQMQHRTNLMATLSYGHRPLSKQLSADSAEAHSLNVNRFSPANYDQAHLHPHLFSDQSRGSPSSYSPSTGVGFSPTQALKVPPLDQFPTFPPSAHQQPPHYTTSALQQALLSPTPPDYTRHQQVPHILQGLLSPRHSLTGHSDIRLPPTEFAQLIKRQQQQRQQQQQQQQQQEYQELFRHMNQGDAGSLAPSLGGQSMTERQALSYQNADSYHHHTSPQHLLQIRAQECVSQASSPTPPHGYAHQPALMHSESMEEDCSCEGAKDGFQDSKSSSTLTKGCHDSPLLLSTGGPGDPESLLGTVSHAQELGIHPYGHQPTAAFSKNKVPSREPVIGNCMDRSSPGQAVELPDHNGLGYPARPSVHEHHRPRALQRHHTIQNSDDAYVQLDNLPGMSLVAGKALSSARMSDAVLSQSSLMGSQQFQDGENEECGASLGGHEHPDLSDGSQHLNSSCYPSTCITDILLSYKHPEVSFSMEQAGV

Structure (SMILES) | concentrations that suppressed/reduced zymosan-induced IL-10 production ([1]; BMDCs) | EC50 ([1]; BMDCs pre-treated 2 days, zymosan 18 hr, ELISA, read-out: EC50 of potentiation of zymosan-induced IL-10 production) [nM] | remaining activity at 0.1 µM (SIK3) [%] | remaining activity at 1 µM (SIK3) [%] | IC50 (SIK3) [nM] | EC50 [1, 2] [nM]
COc1ccc(N(C(=O)Nc2c(C)cccc2C)c2cc(Nc3ccc(N4CCN(C)CC4)cc3)ncn2)c(OC)c1 [HG-9-91-01] | greater than 1 μM | ~200 |  |  |  | 
CCN1CCN(c2ccc(Nc3cc(-n4ccnc4Nc4c(C)cccc4C)ncn3)cc2)CC1 [II-1, 6-(2-((2,6-dimethylphenyl)amino)-1H-imidazol-1-yl)-N-(4-(4-ethylpiperazin-1-yl)phenyl)pyrimidin-4-amine] |  |  | 45 | 16 | 120 | 1460
Cc1cccc(C)c1NC(=O)N1C/C=C\COc2cccc(c2)Nc2cc1ncn2 [I-1] |  |  | 33 | 13 | 89.1 | 5620

Source: patent US10265321B2, “Uses of salt-inducible kinase (SIK) inhibitors” (Dana-Farber Cancer Institute, Inc., priority 2014, dated 2019)
